Consider nine compounds from US20060135458A1, “Antiviral oligonucleotides” (priority 2002, published 2006).

In the oligonucleotide strings, read from the 5' end, every base follows the letter of its sugar. An asterisk marks phosphorothioate; unmarked linkages are phosphodiester. Other units and linkages are bracketed, terminal groups are in braces. A string of capitals states the bases alone. d = 2'-deoxy (DNA)

The subject of data set [1] is Influenza A/HK/68 (H3N2). Also noted: species or system Balb/c mice. As to conditions: mouse, in vivo, ip, 180 mg/kg.
In data set [2] the test system is HSV-1 (strain MacIntyre) lysate. Description: Fluorescence polarization binding to HSV-1 lysate. As to conditions: FITC-labelled ON.
The test system of data set [3] is RSV (strain A2) lysate. Description: Fluorescence polarization binding to RSV lysate. As to conditions: FITC-labelled ON. On the technique in general: Fluorescence polarisation rises when a labelled molecule tumbles more slowly, as on binding a larger partner.
Data set [4] deals with HIV-1 (strain Mn) lysate. Briefly: Fluorescence polarization binding to HIV-1 lysate. As to conditions: FITC-labelled ON.
Data set [5] relates to HSV-1 (strain KOS). Description: HSV-1 plaque reduction assay (PRA) in VERO cells. Type of data set: cell-based. As to conditions: for IC50: VERO cells, HSV-1 strain KOS, linear regressions, read-out: IC50 (anti-HSV-1). Here is the method: The ability of PS-ONs to inhibit HSV-1 is measured in a plaque reduction assay (PRA). […] Upon reaching confluency, the media is changed to contain only 5% serum plus supplements as described above and cells are then exposed to HSV-1 (strain KOS, approximately 40-60 PFU total) in the presence of the test compound for 90 minutes. After viral exposure, the media is replaced with new “overlay” media containing 5% serum, 1% human immunoglobulins, supplements as described above and the test compound. Plaque counting is performed 3-4 days post infection following formalin fixation and cresyl violet staining of infected cultures.
(§1) Viral adsorbtion proceeds for 90 minutes, after which cells are washed and replaced with new “overlay” media containing 5% fetal calf serum and 1% human immunoglobins. Three to four days after adsorbtion, cells are fixed by formalin and plaques are counted following formalin fixation and cresyl violet staining.
Upon reaching confluency, the media is changed to contain only 5% serum plus supplements as described above and cells are then exposed to HSV-1 (strain KOS, approximately 40-60 PFU total) in the presence of the test compound for 90 minutes. After viral exposure, the media is replaced with new “overlay” media containing 5% serum, 1% human immunoglobulins, supplements as described above and the test compound. Plaque counting is performed 3-4 days post infection following formalin fixation and cresyl violet staining of infected cultures.
(In general: In a plaque reduction assay, fewer plaques than in the control indicate reduced infectivity or spread.)

The subject of data set [6] is HSV-2 (strain MS2). Description: HSV-2 plaque reduction assay (PRA). Type of data set: cell-based. Here is the method:
The ability of PS-ONs to inhibit HSV-2 is measured by PRA. […] Upon reaching confluency, the media is changed to contain only 5% serum plus supplements as described above and cells are then exposed to HSV-2 (strain MS2, approximately 40-60 PFU total) in the presence of the test compound for 90 minutes. After viral exposure, the media is replaced with new “overlay” media containing 5% serum, 1% human immunoglobulins, supplements as described above and the test compound. Plaque counting is performed 3-4 days post infection following formalin fixation and cresyl violet staining of infected cultures.
as §1

Data set [7] deals with S1 Nuclease (Aspergillus oryzae, UniProt P24021). As to conditions: after 4 h at 37° C.
Chain of S1 Nuclease (P24021 21-287): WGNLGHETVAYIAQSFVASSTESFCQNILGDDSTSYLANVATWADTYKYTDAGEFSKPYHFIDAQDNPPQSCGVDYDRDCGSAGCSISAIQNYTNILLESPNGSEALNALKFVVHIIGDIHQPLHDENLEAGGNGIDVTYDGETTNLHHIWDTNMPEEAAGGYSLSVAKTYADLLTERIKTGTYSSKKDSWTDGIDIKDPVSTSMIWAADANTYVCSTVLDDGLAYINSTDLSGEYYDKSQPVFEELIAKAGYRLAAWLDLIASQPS
The target of data set [8] is Exonuclease I (Escherichia coli, UniProt P04995). Also on record: key to the marks not given beside the values. As to conditions: after 4 h at 37° C.
Chain of Exonuclease I (P04995 whole entry): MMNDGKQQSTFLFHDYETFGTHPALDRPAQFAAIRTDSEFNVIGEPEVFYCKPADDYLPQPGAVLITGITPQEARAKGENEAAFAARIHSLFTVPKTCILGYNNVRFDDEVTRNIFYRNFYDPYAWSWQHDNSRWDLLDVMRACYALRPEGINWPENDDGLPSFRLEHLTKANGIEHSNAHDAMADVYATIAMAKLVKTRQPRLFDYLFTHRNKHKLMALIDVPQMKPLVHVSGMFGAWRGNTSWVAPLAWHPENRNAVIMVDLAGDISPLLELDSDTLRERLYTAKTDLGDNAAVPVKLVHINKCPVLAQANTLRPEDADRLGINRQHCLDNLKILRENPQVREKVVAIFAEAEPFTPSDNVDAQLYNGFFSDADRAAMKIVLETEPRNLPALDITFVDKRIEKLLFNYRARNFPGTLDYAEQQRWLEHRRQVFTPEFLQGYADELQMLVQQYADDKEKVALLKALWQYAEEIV
On the set-up of data set [9]: Acid stability, pH 5 / Acid stability, pH 7: key to the marks not given beside the values.
The test system of data set [10] is Phosphodiesterase II. As to conditions: after 4 h at 37° C.

On to `NC(=O)c1ncn([C@@H]2O[C@H](CO)[C@@H](O)[C@H]2O)n1` [Ribavirin], for which, in data set [1], the “Viral titer (log10/g lung) Mean” value came to 3.3 log10/g lung.

Turning to “A20: 20-mer PS-ON, polyA, 3′ FITC labelled in the binding test”, the “binding to HSV-1 lysate (fluorescence polarization, mP)” value (from here on “binding to HSV-1 lysate”) in [2] was “the weakest interactor of these by a significant margin”. The “binding to RSV lysate (fluorescence polarization, mP)” value (shortened to “binding to RSV lysate”) in data set [3] is recorded as “the weakest interactor of these by a significant margin”. Also, the “binding to HIV-1 lysate (fluorescence polarization, mP)” value (shortened to “binding to HIV-1 lysate”) in data set [4] is “the weakest interactor of these by a significant margin”.

Regarding “REP 1001: PS-ON directed against a replication origin in humans (343 ARS) (DNA dT*dT*dG*dA*dT*dA*dA*dA*dT*dA*dG*dT*dA*dC*dT*dA*dG*dG*dA*dC)”, the IC50 (usually the concentration needed to halve the response being measured) in data set [5] amounted to 2760 nM. For the same compound, the anti-HSV-2 activity result in data set [6] is on record as “showed anti-HSV-2 activity”.

As for “REP 2001: PS-ON directed against the origin of replication in HSV (DNA dG*dA*dA*dG*dC*dG*dT*dT*dC*dG*dC*dA*dC*dT*dT*dC*dG*dT*dC*dC*dC*dA)”, the IC50 in [5] stood at 770 nM. For the same compound, in data set [6], the anti-HSV-2 activity entry is on record as “showed anti-HSV-2 activity”.

For “REP 2017: random sequence 20-mer PS-ON (DNA dA*dC*dA*dC*dC*dT*dC*dC*dG*dA*dA*dG*dA*dC*dG*dA*dT*dA*dA*dC)”, the “binding to HSV-1 lysate” value in data set [2] was “capable of HSV-1 and HIV-1 interaction”. In addition, in data set [4], the “binding to HIV-1 lysate” value is “capable of HSV-1 and HIV-1 interaction”.

“REP 2029: A40 (polyA) PS-ON (DNA dA*dA*dA*dA*dA*dA*dA*dA*dA*dA*dA*dA*dA*dA*dA*dA*dA*dA*dA*dA*dA*dA*dA*dA*dA*dA*dA*dA*dA*dA*dA*dA*dA*dA*dA*dA*dA*dA*dA*dA)”: the “Nuclease resistance, S1” value in data set [7] is reported as “−”. Further, in data set [8], the “Nuclease resistance, Exo 1” value was “++++”. Moreover, the “relative anti-HSV-1 efficacy by sequence composition” value in data set [5] (PS-ONs of equivalent size, HSV-1 PRA) was “the least active”. In addition, the “Acid stability, pH 1” value in [9] (pH 1, 24 h at 37° C.) is on record as “−”. The “Acid stability, pH 2” value in data set [9] (pH 2, 24 h at 37° C.) is recorded as “−”. The “Acid stability, pH 2.5” value in data set [9] (pH 2.5, 24 h at 37° C.) is listed as “−”. The “Acid stability, pH 3” value in data set [9] (pH 3, 24 h at 37° C.) is on record as “−”. Besides, the “Acid stability, pH 4” value in [9] (pH 4, 24 h at 37° C.) was “++ (++ = less than 5-% degradation)”. Moreover, the “Acid stability, pH 5” value in data set [9] (pH 5, 24 h at 37° C.) was “+++”. The “Acid stability, pH 7” value in data set [9] (pH 7, 24 h at 37° C.) is “+++”. Moreover, the “Nuclease resistance, PII” value in data set [10] is listed as “−”.

For “REP 3007: PS-ON directed against a plasmid (pBR322/pUC) replication origin (DNA dC*dT*dT*dG*dC*dG*dG*dT*dA*dT*dT*dC*dG*dG*dA*dA)”, the IC50 in [5] was 5330 nM. For the same compound, in [6], the anti-HSV-2 activity entry is on record as “showed anti-HSV-2 activity”.

Take T20: 20-mer PS-ON, polyT: the “binding to HSV-1 lysate” value in data set [2] is “the weakest interactors”. In data set [3], the “binding to RSV lysate” value is reported as “the weakest interactors”. In data set [4], the “binding to HIV-1 lysate” value is “the weakest interactors”.

In the case of TG10: 20-mer PS-ON, TG repeat, in [2], the “binding to HSV-1 lysate” value is on record as “the strongest interaction”. Besides, in data set [3], the “binding to RSV lysate” value is given as “the strongest interaction”. Also, in data set [4], the “binding to HIV-1 lysate” value is “the strongest interaction”.
